Structures can show the parent of a compound that is named as a salt. Where two headings read alike, the source gives them in different places.
What was measured:
[1] = Enzymatic hydrolytic cleavage in human plasma; format: in vitro ADME; conditions: for half-life at 1000 µM: human, plasma
Method: (§1) Analytical Methods. A high pressure liquid chromatography (HPLC) method was developed for the determination of the rate constants. The chromatographic analysis was performed in a system consisting of Waters Associates Model 600-A Solvent Delivery System, Model U-6K Injector and Model 440 Dual Channel Absorbance Detector operated at 254 and 280 nm. A 30 cm×3.9 mm (internal diameter) reverse phase μBondpack C18 column (Waters Associates), operated at ambient temperature, was used for all separations. When plasma samples were analyzed, the column was protected with a 2.3 cm×3.9 mm (internal diameter) Guard Column (Waters) packed with μBondpack C18/Corasil packing material. The mobile phase used for the separation of 17 and its degradation product, 5, consisted of water, 1-hexane sulfonic acid in acetic acid (B-6 reagent, Waters), 0.1M triethanolamine and methanol (100:1:100:799). […] For the separation of compounds 10-16 and 18 and their degradation product 5, a mobile phase consisting of water, 1-hexane sulfonic acid in acetic acid (B-6 reagent, Waters), 0.1M triethanolamine and methanol (390:1:10:599) was used.
(§2) Determination of the Hydrolytic Rate Constants in Aqueous Solutions. A 0.01M phosphate buffer and 0.01N sodium hydroxide solution were prepared from freshly distilled deionized water. This ionic strength was maintained at 0.1M with sodium chloride. The pH of the phosphate buffer was determined at 37.0° C. with a pH meter standardized at this temperature. For determination of the hydrolytic rate constants, a fresh concentrated solution of the ester in methanol was added to the hydrolytic medium previously equilibrated to the desired temperature and mixed thoroughly to result in an initial concentration of about 5×10^-4 mol. liter^-1. All reactions were run under pseudo first order conditions. Samples of 25 μL were injected into the column at various time intervals and the pseudo first order rate constants were determined from disappearance of the compound by linear regression of natural logarithm of the peak height versus time plots. The half-life and standard error of the rate constant were calculated for each run.
Determination of the Enzymatic Hydrolytic Cleavage Rates in Human Plasma. The freshly collected plasma used was obtained from the Civitan Regional Blood Center, Inc. (Gainesville, Fla.) and contained about 80% plasma diluted with anticoagulant citrate phosphate dextrose solution, U.S.P. The plasma was stored in a refrigerator and used within one week from the date it was collected.
A portion of 50 μL of a freshly prepared solution of the compound in methanol was added to 10 mL plasma, previously equilibrated at 37.0° C. in a water bath, and mixed thoroughly to result in an initial concentration of 1×10^-3 mol. liter^-1. One mL samples of plasma were withdrawn from the test medium, mixed immediately with 4.0 mL ice cold 95% v/v ethanol, centrifuged and the supernatant analyzed by HPLC. The first order hydrolytic rate constant was determined as before in the aqueous solutions and the results are listed in TABLE II below.

[2] = Hydrolytic rate in 0.01 N aqueous sodium hydroxide, pH 12.0; format: physicochemical; conditions: pH 12.0, ionic strength 0.10 M (NaCl), 27.3 ± 0.2° C.
Method: as §1, §2

[3] = tested on: heart rate response to isoproterenol (β-adrenergic); assay: Cardiovascular experiments in dogs: blockade of isoproterenol heart rate response; format: in vivo, mongrel dogs
Method: Method. Healthy, mongrel dogs were anesthetized with a combination of morphine sulfate (2.0 mg/kg, subcutaneously) followed in 20 minutes with pentabarbital sodium (15 mg/kg, intravenously). Supplemental pentabarbital was given as necessary. A femoral vein was catheterized with polyethylene tubing to the level of the heart for injecting drug solutions. A polyethylene tube filled with heparinized saline was inserted through the femoral artery and advanced to the thoracic aorta for the measurement of arterial pressure. The left carotid artery was cannulated with a Millar® transducer-tip catheter for measurement of left ventricular pressure (LVP). The rising slope of the LVP signal was differentiated to give dP/dt, an estimate of myocardial contractility. Heart rate was determined via a Grass cardiotachometer triggered by the R wave of the lead II EKG. All variables were recorded on a Grass polygraph.
Dose-response curves were constructed for each experimental variable to graded i.v. doses of the β-adrenergic agonist, isoproterenol. A period of 3-5 minutes was allowed after each injection for variables to return to base-line. Following this, one of the four experimental β-adrenergic blocking agents was given i.v. over a one-minute period. Abbreviated dose-response curves (2-3 dose points) were again constructed to isoproterenol at 15, 30, 45, 60, 75 and 90 minutes after the administration of the test blockers. Using a 50-beat per minute (bpm) increase in heart rate as criteria, the degree of blockade was determined by dividing the dose of isoproterenol needed to produce a 50 bpm increase at various times following administration of an antagonists by the dose needed for this effect during the control period. The doses of the experimental β-adrenergic antagonists given were determined from previous experiments to produce an approximate two- or four-fold blockade of the heart rate response to isoproterenol.

[4] = 1 mg/kg i.v., 15 minute measurements

Observed first order hydrolytic rate constant k ([1]; 37.0 ± 0.1° C., ± SEM): 0.566 ± 0.027 min⁻¹ | half-life at 1000 µM ([1]; 37.0 ± 0.1° C., read-out: Half-life t1/2): 1.22 min | half-life at 1000 µM ([1]; read-out: in vitro plasma half-life): ~1 min | Observed pseudo first order hydrolytic rate constant k ([2]; 0.01 N NaOH, ± SEM): 1.56 ± 0.04 × 10^-2 min^-1 | half-life ([2]; 0.01 n naoh, pH 12, 0.01 N NaOH, read-out: Half-life t1/2): 44.4 min
Compound: CC(C)NCC(O)COc1ccc(CC(=O)OC2CC(C)(C)CC(C)(C)C2)cc1 (stereo not shown) [Compound 17, 3,3,5,5-Tetramethylcyclohexyl 4-(2-hydroxy-3-isopropylamino)propoxyphenylacetate oxalate 3/4 hydrate]
Duration, Mean (time at which response to isoproterenol had returned to control levels) ([3]; 1 mg/kg i.v.): ~ 70 min | Duration, Range (time at which response to isoproterenol had returned to control levels) ([3]; 1 mg/kg i.v.): 45 to 90 min | Maximal blockade, Mean (time necessary to reach maximal blockade) [3, 4]: 40 min | Maximal blockade, Range (time necessary to reach maximal blockade) [3, 4]: 30 to 60 min | duration of action ([3]; i.v.): much more variable and generally longer

Source: patent US4829086A, “Soft β-adrenergic blocking agents” (priority 1985, dated 1989)
